pIC50: −log10 of the molar value. Read-outs that look alike come from different tables or passages of the source.
How the values were obtained:
[1] = target: Recombinant ROCK2 (amino acids 1-552) (Homo sapiens (Human), UniProt O75116); assay: Z′-Lyte kinase assay, ROCK2; type: biochemical; conditions: for inhibition at 1 µM: 1 μM compound, read-out: ROCK2 % inh. @ [conc]
Procedure, shortened: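 IC50s derive from nonlinear curve fits over a 9-point, 2-fold dilution series, with single-point inhibition at 1 μM expressed relative to DMSO. Activity of truncated human ROCK1 (residues 1-535) and ROCK2 (residues 1-552) measured with the Z′-Lyte kinase format.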

[2] = test system: ppMlc (T18/S19) levels in A7R5 cells; assay: A7R5 in-cell ELISA (pMLC); type: cell-based, Rat; conditions: Rattus norvegicus, A7R5, A7R5 cells; for inhibition at 10 µM: 10 μM compound; for inhibition at 10 µM / inhibition at 1 µM: read-out: pMLC % inh A7R5 @ [conc]; for inhibition at 1 µM: 1 μM compound; for IC50: ppMlc (T18/S19)
Procedure, shortened: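 Cellular IC50 came from a nonlinear regression fit of ppMlc (T18/S19) signal, read by colorimetric in-cell ELISA on fixed cells. Rat A7R5 aortic smooth muscle cells had been exposed for 90 min to compounds in 9-point 2-fold serial dilution, 24 h after seeding.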

[3] = 9 points 2-fold serial dilution

Sequence of Recombinant ROCK2 (amino acids 1-552) (O75116 1-552): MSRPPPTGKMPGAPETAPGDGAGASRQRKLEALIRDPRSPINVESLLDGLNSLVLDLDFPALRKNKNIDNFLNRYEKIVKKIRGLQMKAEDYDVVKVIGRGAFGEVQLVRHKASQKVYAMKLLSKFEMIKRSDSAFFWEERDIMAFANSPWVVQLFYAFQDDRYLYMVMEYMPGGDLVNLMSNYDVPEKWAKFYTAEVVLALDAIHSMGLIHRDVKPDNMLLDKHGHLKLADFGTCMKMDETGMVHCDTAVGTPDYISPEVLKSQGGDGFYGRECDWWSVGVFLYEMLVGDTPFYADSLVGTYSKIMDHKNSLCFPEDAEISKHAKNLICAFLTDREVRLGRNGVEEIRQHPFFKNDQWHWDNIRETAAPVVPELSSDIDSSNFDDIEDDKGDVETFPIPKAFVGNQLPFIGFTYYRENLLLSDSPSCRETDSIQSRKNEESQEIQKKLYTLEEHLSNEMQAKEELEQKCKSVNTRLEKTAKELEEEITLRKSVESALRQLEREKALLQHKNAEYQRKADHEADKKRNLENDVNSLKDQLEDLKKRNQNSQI

Row | Compound | inhibition at 1 µM [1] | pIC50 [1] | IC50 [2] | pIC50 [1, 3] | inhibition at 10 µM [2] | inhibition at 1 µM [2]
1 | c1cc(Nc2ccc(-c3cnn[nH]3)cc2)nc(N2CCNCC2)n1 [Example 41, N-(4-(1H-1,2,3-triazol-5-yl)phenyl)-2-(piperazin-1-yl)pyrimidin-4-amine] |  |  |  | < 5.00 | 9.96% | 
2 | Cc1cc(Nc2ccc3[nH]ncc3c2)nc(N2CCC3NCCC3C2)n1 (stereo not shown) [Example 131, N-(6-methyl-2-(octahydro-5H-pyrrolo[3,2-c]pyridin-5-yl)pyrimidin-4-yl)-1H-indazol-5-amine] | 74.1% |  |  |  |  | 12.7%
3 | Cc1cnc(N2C3CCC2CNC3)nc1Nc1ccc2[nH]ncc2c1 [Example 107, N-(2-(3,8-diazabicyclo[3.2.1]octan-8-yl)-5-methylpyrimidin-4-yl)-1H-indazol-5-amine] | 98.3% |  |  |  |  | 26%
4 | CCC1CN(c2nc(C)c(C)c(Nc3ccc4[nH]ncc4c3)n2)CCN1 (stereo not shown) [Example 14, N-(2-(3-ethylpiperazin-1-yl)-5,6-dimethylpyrimidin-4-yl)-1H-indazol-5-amine] | 33.3% |  |  |  | 48.9% | 
5 | CCC1CCN(c2nc(C)cc(Nc3ccc4[nH]ncc4c3)n2)CCN1 (stereo not shown) [Example 109, N-(2-(5-ethyl-1,4-diazepan-1-yl)-6-methylpyrimidin-4-yl)-1H-indazol-5-amine] | 68.4% |  | 1880 nM |  | 52.3% | 
6 | Cc1nc(N2CCNC(C(C)C)C2)nc(Nc2ccc3[nH]ncc3c2)c1C (stereo not shown) [Example 15, N-(2-(3-isopropylpiperazin-1-yl)-5,6-dimethylpyrimidin-4-yl)-1H-indazol-5-amine] | 8% |  |  |  | 26.4% | 
7 | Cc1cnc(N2CCNC(C)CC2)nc1Nc1ccc2[nH]ncc2c1 (stereo not shown) [Example 100, N-(5-methyl-2-(5-methyl-1,4-diazepan-1-yl)pyrimidin-4-yl)-1H-indazol-5-amine] | 47.5% |  |  |  | 46.4% | 
8 | c1cc(Nc2ccc3[nH]ncc3c2)nc(N2CC3CCC(C2)N3)n1 [Example 229, N-(2-(3,8-diazabicyclo[3.2.1]octan-3-yl)pyrimidin-4-yl)-1H-indazol-5-amine] |  |  |  | 7.11 | 81% | 
9 | c1cc(Nc2ccc3[nH]ncc3c2)nc(N2CCC3CNCC3CC2)n1 (stereo not shown) [Example 85, N-(2-(octahydropyrrolo[3,4-d]azepin-6(1H)-yl)pyrimidin-4-yl)-1H-indazol-5-amine] | 98% |  |  |  |  | 17.3%
10 | Nc1nnc(-c2ccc(Nc3ccnc(N4CCNCC4)n3)cc2)s1 [Example 356, 5-(4-((2-(piperazin-1-yl)pyrimidin-4-yl)amino)phenyl)-1,3,4-thiadiazol-2-amine] |  | < 5.00 |  |  | 6.59% | 
11 | CC1CN(c2ncc(Cl)c(Nc3ccc4[nH]ncc4c3)n2)CCCN1 (stereo not shown) [Example 90, N-(5-chloro-2-(3-methyl-1,4-diazepan-1-yl)pyrimidin-4-yl)-1H-indazol-5-amine] | 73.8% |  | 2200 nM |  | 54.2% | 
12 | COc1cnc(N2CCNC(C(C)C)C2)nc1Nc1ccc2[nH]ncc2c1 (stereo not shown) [Example 51, N-(2-(3-isopropylpiperazin-1-yl)-5-methoxypyrimidin-4-yl)-1H-indazol-5-amine] | 29.3% |  |  |  | 39.4% | 
13 | c1ccc2c(Nc3ccc4[nH]ncc4c3)nc(N3CCCNCC3)nc2c1 [Example 6, 2-(1,4-diazepan-1-yl)-N-(1H-indazol-5-yl)quinazolin-4-amine] | 85.7% |  | 1800 nM |  | 94.6% | 

Further lines, with some results ahead:

Row | inhibition at 1 µM [1] | pIC50 [1] | IC50 [2] | Compound | pIC50 [1, 3] | inhibition at 10 µM [2] | inhibition at 1 µM [2]
14 | 17.6% |  |  | Fc1cnc(N2CCN3CCNCC3C2)nc1Nc1ccc2[nH]ncc2c1 (stereo not shown) [Example 173, N-(5-fluoro-2-(octahydro-2H-pyrazino[1,2-a]pyrazin-2-yl)pyrimidin-4-yl)-1H-indazol-5-amine] |  |  | 1.3%
15 | 37.6% |  |  | CC(C)C1CN(c2ncc(F)c(Nc3ccc4[nH]ncc4c3)n2)CCN1 (stereo not shown) [Example 147, N-(5-fluoro-2-(3-isopropylpiperazin-1-yl)pyrimidin-4-yl)-1H-indazol-5-amine] |  | 47.8% | 
16 |  | < 5.00 |  | c1cc(Nc2ccc(-c3cnc[nH]3)cc2)nc(N2CCNCC2)n1 [Example 351, N-(4-(1H-imidazol-5-yl)phenyl)-2-(piperazin-1-yl)pyrimidin-4-amine] |  | 7.8% | 
17 | 4.6% |  |  | Cc1nc(N2CCNC(C(C)C)CC2)nc(Nc2ccc3[nH]ncc3c2)c1C (stereo not shown) [Example 19, N-(2-(5-isopropyl-1,4-diazepan-1-yl)-5,6-dimethylpyrimidin-4-yl)-1H-indazol-5-amine] |  | 31.8% | 
18 |  | 5.91 |  | N[C@H]1CCN(c2nccc(Nc3ccc(-c4cn[nH]c4)cc3)n2)C1 [Example 254, (S)—N-(4-(1H-pyrazol-4-yl)phenyl)-2-(3-aminopyrrolidin-1-yl)pyrimidin-4-amine] |  | 16.2% | 
19 |  | 5.43 |  | Nc1ccc(-c2ccc(Nc3ccnc(N4CCNCC4)n3)cc2)cn1 [Example 350, N-(4-(6-aminopyridin-3-yl)phenyl)-2-(piperazin-1-yl)pyrimidin-4-amine] |  | 14.8% | 
20 | 67% |  | 1850 nM | CC1CCN(c2ncc(Cl)c(Nc3ccc4[nH]ncc4c3)n2)CCN1 (stereo not shown) [Example 191, N-(5-chloro-2-(5-methyl-1,4-diazepan-1-yl)pyrimidin-4-yl)-1H-indazol-5-amine] |  | 50.6% | 
21 | 85.2% |  | 954 nM | CCC1CNCCCN1c1nccc(Nc2ccc3[nH]ncc3c2)n1 (stereo not shown) [Example 241, N-(2-(2-ethyl-1,4-diazepan-1-yl)pyrimidin-4-yl)-1H-indazol-5-amine] |  | 81% | 
22 | 83.3% |  | 1600 nM | Cc1nc(N2CCCNCC2)nc(Nc2ccc3[nH]ncc3c2)c1C [Example 8, N-(2-(1,4-diazepan-1-yl)-5,6-dimethylpyrimidin-4-yl)-1H-indazol-5-amine] |  | 89% | 
23 | 34.1% |  |  | CCC1CN(c2ncc(C)c(Nc3ccc4[nH]ncc4c3)n2)CCCN1 (stereo not shown) [Example 106, N-(2-(3-ethyl-1,4-diazepan-1-yl)-5-methylpyrimidin-4-yl)-1H-indazol-5-amine] |  |  | 12.8%
24 | 97.3% |  | 839 nM | c1cc2[nH]ncc2cc1Nc1nc(N2CCCNCC2)nc2c1CSC2 [Example 12, 2-(1,4-diazepan-1-yl)-N-(1H-indazol-5-yl)-5,7-dihydrothieno[3,4-d]pyrimidin-4-amine] |  | 95% | 
25 | 82% |  |  | CCC1CN(c2nc(C)cc(Nc3ccc4[nH]ncc4c3)n2)CCN1 (stereo not shown) [Example 114, N-(2-(3-ethylpiperazin-1-yl)-6-methylpyrimidin-4-yl)-1H-indazol-5-amine] |  | 48.7% | 
26 | 7.6% |  |  | c1ccc2c(c1)N(c1nccc(Nc3ccc4[nH]ncc4c3)n1)CC21CCNCC1 [Example 87, N-(2-(spiro[indoline-3,4′-piperidin]-1-yl)pyrimidin-4-yl)-1H-indazol-5-amine] |  |  | 5.8%
27 | 44.9% |  |  | CCC1CCN(c2ncc(Cl)c(Nc3ccc4[nH]ncc4c3)n2)CCN1 (stereo not shown) [Example 188, N-(5-chloro-2-(5-ethyl-1,4-diazepan-1-yl)pyrimidin-4-yl)-1H-indazol-5-amine] |  | 47.9% | 

From patent US11613531B2, “Inhibitors of RHO associated coiled-coil containing protein kinase” (Kadmon Corporation, LLC, priority 2017, dated 2023)
